According to ChEMBL document CHEMBL4270580, “Syntheses of C-ring modified dehydroabietylamides and their cytotoxic activity” (Eur J Med Chem, 2018):
pEC50: −log10 of the molar value.

Columns and labels:
[1] = system: FaDu; experiment: Cytotoxicity against human FADU cells after 96 hrs by sulforhodamine-B assay; assay type: functional, cell-based; settings: for pEC50: Homo sapiens, FaDu, 96 h, read-out: EC50
[2] = system: A2780; experiment: Cytotoxicity against human A2780 cells after 96 hrs by sulforhodamine-B assay; assay type: functional, cell-based; settings: for pEC50: Homo sapiens, A2780, 96 h, read-out: EC50
[3] = system: HT-29; experiment: Cytotoxicity against human HT-29 cells after 96 hrs by sulforhodamine-B assay; assay type: functional, cell-based; settings: for pEC50: Homo sapiens, HT-29, 96 h, read-out: EC50
[4] = system: MCF7; experiment: Cytotoxicity against human MCF7 cells after 96 hrs by sulforhodamine-B assay; assay type: functional, cell-based; settings: for pEC50: Homo sapiens, MCF7, 96 h, read-out: EC50
[5] = system: SW-1736; experiment: Cytotoxicity against human SW1736 cells after 96 hrs by sulforhodamine-B assay; assay type: functional, cell-based; settings: for pEC50: Homo sapiens, SW-1736, 96 h, read-out: EC50
[6] = system: NIH3T3; experiment: Cytotoxicity against mouse NIH/3T3 cells after 96 hrs by sulforhodamine-B assay; assay type: cell-based; settings: for pEC50: Mus musculus, NIH3T3, 96 h, read-out: EC50
[7] = Selectivity index, ratio of EC50 for mouse NIH/3T3 cells to EC50 for human MCF7 cells; assay type: toxicity; settings: NIH/3T3 cells and MCF7 cells, read-out: Ratio EC50

Row | Structure (SMILES) | pEC50 [1] | pEC50 [2] | pEC50 [3] | pEC50 [4] | pEC50 [5] | pEC50 [6] | selectivity ratio [7] | EC50 ([1]; fadu) | EC50 ([2]; a2780) | EC50 ([3]; ht-29) | EC50 ([4]; mcf7) | EC50 ([5]; sw-1736) | EC50 ([6]; nih3t3)
1 | CC(C)c1ccc2c(c1)CC[C@H]1[C@](C)(CNC(=O)c3ccccc3)CCC[C@]21C | < 4.52 | < 4.52 | < 4.52 | < 4.52 | < 4.52 | < 4.52 | – | – | – | – | – | – | –
2 | CC(C)c1cc2c(cc1OC(=O)c1ccccc1)[C@@]1(C)CCC[C@@](C)(CNC(=O)c3ccccc3)[C@@H]1CC2 | < 4.52 | < 4.52 | < 4.52 | < 4.52 | < 4.52 | < 4.52 | – | – | – | – | – | – | –
3 | CC(C)c1ccc2c(c1)CC[C@H]1[C@](C)(CNC(=O)c3ccc(O)cc3)CCC[C@]21C | 4.85 | 5.06 | 5.07 | 5.10 | 4.89 | 5.16 | – | – | – | – | – | – | –
4 | CC(C)c1ccc2c(c1)CC[C@H]1[C@](C)(CNC(=O)c3ccncc3)CCC[C@]21C | 4.84 | 5.01 | 4.97 | 5.10 | 4.85 | 4.77 | – | – | – | – | – | – | –
5 | CC(=O)Oc1ccc(C(=O)NC[C@]2(C)CCC[C@]3(C)c4cc(OC(C)=O)c(C(C)C)cc4CC[C@@H]23)cc1 | 4.69 | 4.75 | 4.95 | 4.98 | 4.76 | 4.67 | – | – | – | – | – | – | –
6 | CC(=O)Oc1cc2c(cc1C(C)C)CC[C@H]1[C@](C)(CNC(=O)CCCC[C@H]3SCC4NC(=O)NC43)CCC[C@]21C (some centres undefined) | < 4.52 | < 4.52 | < 4.52 | < 4.52 | < 4.52 | < 4.52 | – | – | – | – | – | – | –
7 | CC(=O)Oc1cc2c(cc1C(C)C)CC[C@H]1[C@](C)(CN)CCC[C@]21C | 4.88 | 4.70 | 5.00 | 4.97 | 4.74 | < 4.52 | – | – | – | – | – | – | –
8 | CC(C)c1cc2c(cc1O)[C@@]1(C)CCC[C@@](C)(CNC(=O)c3ccc(Cl)cc3)[C@@H]1CC2 | 4.66 | 5.18 | 4.98 | 5.30 | 4.99 | 4.80 | – | – | – | – | – | – | –
9 | CC(=O)Oc1cc2c(cc1C(C)C)CC[C@H]1[C@](C)(CNC(=O)c3ccncc3)CCC[C@]21C | 4.91 | 4.84 | 4.82 | 5.24 | 4.89 | 4.53 | – | – | – | – | – | – | –
10 | CC(C)c1cc2c(cc1O)[C@@]1(C)CCC[C@@](C)(CNC(=O)c3ccccc3)[C@@H]1CC2 | 4.83 | 4.90 | 4.79 | 5.32 | 4.94 | 4.74 | – | – | – | – | – | – | –
11 | COc1ccc(C(=O)NC[C@]2(C)CCC[C@]3(C)c4ccc(C(C)C)cc4CC[C@@H]23)cc1 | 4.76 | 5.04 | 4.98 | 5.35 | 4.95 | 4.64 | 8.8 | – | – | – | – | – | –
12 | C=C(C)[C@@H]1CC[C@]2(C(=O)O)CC[C@]3(C)[C@H](CC[C@@H]4[C@@]5(C)CC[C@H](O)C(C)(C)[C@@H]5CC[C@]43C)[C@@H]12 [BETULINIC ACID] | 4.97 | 5.01 | 4.80 | 4.97 | 4.83 | 4.89 | – | – | – | – | – | – | –
13 | CC(C)c1cc2c(cc1O)[C@@]1(C)CCC[C@@](C)(CNC(=O)CCCC[C@H]3SCC4NC(=O)NC43)[C@@H]1CC2 (some centres undefined) | < 4.52 | < 4.52 | < 4.52 | < 4.52 | < 4.52 | < 4.52 | – | – | – | – | – | – | –
14 | CC(C)c1cc2c(cc1O)[C@@]1(C)CCC[C@@](C)(CNC(=O)c3ccc(O)cc3)[C@@H]1CC2 | < 4.52 | < 4.52 | < 4.52 | < 4.52 | < 4.52 | < 4.52 | – | – | – | – | – | – | –
15 | CC(C)c1cc2c(cc1O)[C@@]1(C)CCC[C@@](C)(CNC(=O)c3ccncc3)[C@@H]1CC2 | 4.73 | 4.89 | 4.72 | 5.37 | 4.56 | 4.62 | 6.2 | – | – | – | – | – | –
16 | CC(=O)Oc1cc2c(cc1C(C)C)CC[C@H]1[C@](C)(CNC(=O)c3ccc(Cl)cc3)CCC[C@]21C | 4.84 | 5.30 | 4.93 | 5.21 | 4.82 | < 4.52 | – | – | – | – | – | – | –
17 | CC(C)c1ccc2c(c1)CC[C@H]1[C@](C)(CNC(=O)CCCC[C@H]3SCC4NC(=O)NC43)CCC[C@]21C (some centres undefined) | 4.61 | 4.73 | 4.81 | 4.94 | < 4.52 | 4.80 | – | – | – | – | – | – | –
18 | COc1ccc(C(=O)NC[C@]2(C)CCC[C@]3(C)c4cc(O)c(C(C)C)cc4CC[C@@H]23)cc1 | 4.70 | 4.88 | 4.87 | 4.93 | 4.79 | 4.63 | – | – | – | – | – | – | –
19 | CC(C)c1cc2c(cc1O)[C@@]1(C)CCC[C@@](C)(CN)[C@@H]1CC2 | 4.94 | 4.76 | 5.02 | 5.05 | 4.87 | 4.66 | – | – | – | – | – | – | –
20 | CC(=O)Oc1cc2c(cc1C(C)C)CC[C@H]1[C@](C)(CNC(=O)c3ccc(C)cc3)CCC[C@]21C | 4.89 | 4.71 | 4.57 | 4.94 | 4.97 | < 4.52 | – | – | – | – | – | – | –
21 | Cc1ccc(C(=O)NC[C@]2(C)CCC[C@]3(C)c4cc(O)c(C(C)C)cc4CC[C@@H]23)cc1 | 4.91 | 5.00 | 4.76 | 5.07 | 5.15 | 4.77 | – | – | – | – | – | – | –
22 | COc1ccc(C(=O)NC[C@]2(C)CCC[C@]3(C)c4cc(OC(C)=O)c(C(C)C)cc4CC[C@@H]23)cc1 | – | – | – | – | – | – | – | Nd(Insoluble) | Nd(Insoluble) | Nd(Insoluble) | Nd(Insoluble) | Nd(Insoluble) | Nd(Insoluble)
23 | Cc1ccc(C(=O)NC[C@]2(C)CCC[C@]3(C)c4ccc(C(C)C)cc4CC[C@@H]23)cc1 | 4.72 | 4.90 | 4.64 | 4.98 | 4.85 | 4.87 | – | – | – | – | – | – | –
24 | CC(C)c1ccc2c(c1)CC[C@H]1[C@](C)(CN)CCC[C@]21C | 5.41 | 5.42 | 5.68 | 5.52 | 5.38 | 5.62 | 0.8 | – | – | – | – | – | –
25 | CC(=O)Oc1cc2c(cc1C(C)C)CC[C@H]1[C@](C)(CNC(=O)c3ccccc3)CCC[C@]21C | 4.87 | 5.09 | 5.05 | 5.35 | 4.87 | 4.76 | – | – | – | – | – | – | –
26 | CC(C)c1ccc2c(c1)CC[C@H]1[C@](C)(CNC(=O)c3ccc(Cl)cc3)CCC[C@]21C | < 4.52 | < 4.52 | < 4.52 | < 4.52 | < 4.52 | < 4.52 | – | – | – | – | – | – | –
